Here are results for 15 molecules from patent US10227347B2, “Purinyl-N-hydroxyl pyrimidine formamide derivative, preparation methods and uses thereof” (Guizhou Bailing Group Pharmaceutical CO., LTD., priority 2015, dated 2019).

Like-named read-outs stand apart in the source and are kept apart here. A value given as a limit tells only on which side of the number the result lay.

The target in one experiment is T1, PI3Kα (Homo sapiens, UniProt P42336).
T1 construct: purchased Invitrogen PV4788
The experiment in a line: PI3Kα activity inhibition (Kinase-Glo). The experiment is classed as biochemical. To be noted: Table 1, graded; read-out: PI3Kα IC50. How it is done:
Detecting the inhibition capability of the compound to PI3Kα and PI3Kδ activities with Kinase-Glo (purchased from Promege Company; Catalog No.: V3771). […] The reaction system also comprises substrates as PIP2 (4, 5-diphosphoinositide, purchased from Life Technologies Company) and ATP (triphosadenine, purchased from Sigma Company). The reaction buffer system comprises 50 mM HEPES (4-hydroxyethylpiperazine ethane sulfonic acid), 3 mM MgCl2, 1 mM EGTA (ethylene glycol bis(2-amino ethylether)quadrol), 100 mM NaCl, 0.03% CHAPS (3-[3-(cholamidopropyl)dimethylamino]-1-propanesulfonic acid), 2 mM DTT (dithiothreitol). The pH value of the reaction buffer is 7.5. […] Mixing the system evenly for incubation under ambient temperature (for 1 h in PI3Kα test and for 2 h in PI3Kδ test). After incubation, adding 10 μL Kinase-Glo which has been preheated to ambient temperature into each reaction well to terminate the reaction; shaking it in dark place for 15 min after it is mixed evenly, then measuring the fluorescence intensity with a microplate reader and analyzing the result data with the software GraphPad Prism.
(§1) Calculating the value of IC50 as per the formula: Y=background data+(top data−background data)/(1+10^((Log IC50−X)*rate of curve))
Where, Y refers to the inhibition ratio (%) and X refers to the compound concentration.
In general terms: Kinase-Glo reads ATP consumption through a luciferase reaction.

For experiment [1], the system named is A2780s cells (ovarian cancer). Kind of experiment: Cell proliferation inhibition, A2780s (MTT). The note with it: Homo sapiens. The experiment is classed as cell-based. On the procedure:
(§2) The tumor cell lines are purchased from American Type Culture Collection (ATCC) and cultivated to the status of logarithmic growth as per the cultural method recommended by ATCC. The cells in logarithmic phase are spread on a 96 well plate as per 2000-3000/well; as for anchorage-dependent cells, the compound should be added in the test wells at certain concentration for incubation for 96 h after cell adherence. Determining cell proliferation activities with method MTT for tumor cells representing solid tumor model and with method cck-8 for tumor cells representing hematologic tumor model, and analyzing the result data with the software GraphPad Prism.
(§3) Calculating the value of IC50 as per the formula: Y=background data+(top data−background data)/(1+10^((Log IC50−X)*rate of curve)). Where, Y refers to the inhibition ratio (%) and X refers to the compound concentration.

The target in another experiment is T2, HDAC1 (Homo sapiens, UniProt Q13547).
T2 construct: purchased BPS Bioscience
T2 sequence (Q13547 whole entry, species assumed): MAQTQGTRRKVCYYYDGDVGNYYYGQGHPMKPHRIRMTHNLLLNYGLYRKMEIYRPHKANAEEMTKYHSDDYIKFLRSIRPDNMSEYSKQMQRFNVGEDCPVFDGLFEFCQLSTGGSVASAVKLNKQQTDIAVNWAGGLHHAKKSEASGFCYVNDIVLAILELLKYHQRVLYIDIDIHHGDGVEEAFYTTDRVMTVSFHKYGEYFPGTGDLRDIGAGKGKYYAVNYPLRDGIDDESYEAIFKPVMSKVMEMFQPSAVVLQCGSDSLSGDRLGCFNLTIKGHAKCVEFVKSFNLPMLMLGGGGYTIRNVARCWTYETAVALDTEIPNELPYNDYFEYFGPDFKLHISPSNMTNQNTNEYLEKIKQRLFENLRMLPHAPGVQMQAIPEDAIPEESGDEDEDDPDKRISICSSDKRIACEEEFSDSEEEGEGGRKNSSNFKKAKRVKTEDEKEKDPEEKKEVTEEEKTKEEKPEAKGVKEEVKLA
Kind of experiment: In vitro HDAC1 enzymatic activity inhibition (Lys-Ac-AMC substrate). It is filed as biochemical. On the procedure: Determining the inhibition capability to HDAC activity through the substrate method of fluorophore 4-amino-7-coumarin coupled Ac-peptide (Lys-Ac-AMC). HDAC1 protein is purchased from BPS Bioscience Company; the reaction buffer system is a modified tris(hydroxymethyl)aminomethane (TRIS) buffer (pH7.0). All small molecule compounds are prepared and dissolved by 100% DMSO (dimethyl sulfoxide). HDAC is prepared into the buffer as per certain concentration to be served as the enzyme solution; trypsin and the fluorophore 4-amino-7-coumarin coupled Ac-peptide substrate are prepared into the buffer as per certain concentration to be served as the substrate solution. Adding the compound into the reaction wells of the 384 well plate at the designed concentration, then adding 15 μL HDAC solution into the reaction wells (adding 15 μL blank buffer into the control well 0) for incubation under ambient temperature for 15 min; then adding 10 μL substrate solution to start reaction; during the reaction, the final concentration of HDAC1 protein is 6 nM, trypsin 0.05 μM and Ac-peptide 8 μM.
as §1
Where, Y refers to the inhibition ratio (%) and X refers to the compound concentration. […]
Analyzing the result data with the software GraphPad Prism and calculating the value of IC50 as per the formula: Y=background data+(top data−background data)/(1+10^((Log IC50−X)*rate of curve)). Where, Y refers to the inhibition ratio (%) and X refers to the compound concentration.

In experiment [2] the test system is hct116 cells (colon cancer). The experiment in a line: Cell proliferation inhibition, hct116 (MTT). It is filed as cell-based. The note with it: Homo sapiens, HCT-116. On the procedure: as §2, §3
In experiment [3] the test system is MV4-11 cells (acute myeloid leukemia). Kind of experiment: Cell proliferation inhibition, MV4-11 (cck-8). To be noted: Homo sapiens. It is filed as cell-based. On the procedure:
as §2, §3

Where [4] appears, read: 96 h incubation, read-out: Proliferation IC50, Ovarian cancer A2780s.
Where [5] appears, read: Table 1, graded, read-out: HDAC1 IC50.
Setting [6] is: 96 h incubation, read-out: Proliferation IC50, Colon cancer hct116.
Where [7] appears, read: 96 h incubation, read-out: Proliferation IC50, Acute myeloid leukemia MV4-11.
Setting [8] is: read-out: IC50 to proliferation of A2780s cells.
Where [9] appears, read: read-out: inhibition value IC50 to the activity of HDAC1.
Setting [10] is: read-out: IC50 to proliferation of hct116 cells.
Where [11] appears, read: read-out: IC50 to proliferation of MV4-11 cells.

T1 sequence (P42336 whole entry, species assumed): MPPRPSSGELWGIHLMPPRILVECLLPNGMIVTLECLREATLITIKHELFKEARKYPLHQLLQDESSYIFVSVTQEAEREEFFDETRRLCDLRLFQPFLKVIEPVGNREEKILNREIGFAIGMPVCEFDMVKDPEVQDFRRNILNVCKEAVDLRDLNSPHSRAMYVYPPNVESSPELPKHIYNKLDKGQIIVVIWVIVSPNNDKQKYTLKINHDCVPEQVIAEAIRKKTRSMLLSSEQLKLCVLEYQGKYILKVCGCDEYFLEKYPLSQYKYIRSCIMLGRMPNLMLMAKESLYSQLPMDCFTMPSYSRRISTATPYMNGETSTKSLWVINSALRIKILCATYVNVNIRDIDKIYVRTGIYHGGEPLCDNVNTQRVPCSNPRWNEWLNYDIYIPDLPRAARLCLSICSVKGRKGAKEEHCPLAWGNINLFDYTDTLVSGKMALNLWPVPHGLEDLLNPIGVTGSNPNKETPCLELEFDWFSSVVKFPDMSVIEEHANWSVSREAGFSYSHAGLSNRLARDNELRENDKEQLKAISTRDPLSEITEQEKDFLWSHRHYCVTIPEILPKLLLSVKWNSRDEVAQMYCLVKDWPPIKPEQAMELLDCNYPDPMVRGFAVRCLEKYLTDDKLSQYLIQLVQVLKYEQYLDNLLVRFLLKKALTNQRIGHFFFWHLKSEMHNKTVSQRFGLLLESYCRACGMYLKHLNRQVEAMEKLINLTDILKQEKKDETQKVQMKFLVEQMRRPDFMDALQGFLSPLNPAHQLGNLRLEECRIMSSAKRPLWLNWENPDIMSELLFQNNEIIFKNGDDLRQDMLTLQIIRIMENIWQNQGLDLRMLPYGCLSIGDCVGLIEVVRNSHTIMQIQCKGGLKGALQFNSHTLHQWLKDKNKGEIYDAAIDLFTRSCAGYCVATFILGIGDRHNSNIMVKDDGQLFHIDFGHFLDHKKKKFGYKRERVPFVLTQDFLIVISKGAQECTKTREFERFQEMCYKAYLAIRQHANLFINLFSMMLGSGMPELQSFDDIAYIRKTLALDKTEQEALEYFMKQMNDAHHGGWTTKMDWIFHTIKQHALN
T1 sequence (P27986 whole entry partner, species assumed): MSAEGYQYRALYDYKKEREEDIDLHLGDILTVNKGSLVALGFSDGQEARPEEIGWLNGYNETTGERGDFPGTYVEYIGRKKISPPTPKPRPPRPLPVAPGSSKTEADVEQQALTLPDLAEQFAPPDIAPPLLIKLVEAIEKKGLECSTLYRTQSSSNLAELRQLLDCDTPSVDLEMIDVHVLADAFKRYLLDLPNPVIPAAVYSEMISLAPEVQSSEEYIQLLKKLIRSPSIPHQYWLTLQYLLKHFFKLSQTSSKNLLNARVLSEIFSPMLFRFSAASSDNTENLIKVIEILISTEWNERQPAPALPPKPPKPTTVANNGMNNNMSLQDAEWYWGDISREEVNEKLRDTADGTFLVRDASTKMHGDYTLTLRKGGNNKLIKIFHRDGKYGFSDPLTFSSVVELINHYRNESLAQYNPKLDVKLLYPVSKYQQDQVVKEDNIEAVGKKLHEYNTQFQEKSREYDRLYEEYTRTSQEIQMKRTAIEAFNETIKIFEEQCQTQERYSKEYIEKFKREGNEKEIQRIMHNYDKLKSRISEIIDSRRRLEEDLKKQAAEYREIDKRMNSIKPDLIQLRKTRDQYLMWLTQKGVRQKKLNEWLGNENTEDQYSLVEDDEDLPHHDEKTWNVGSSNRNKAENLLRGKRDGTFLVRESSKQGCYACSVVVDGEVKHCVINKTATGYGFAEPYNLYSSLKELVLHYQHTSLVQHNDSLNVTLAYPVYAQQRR

With `CN(Cc1nc2c(N3CCOCC3)nc(-c3ccc(C(F)(F)F)cc3)nc2n1C)c1ncc(C(=O)NO)cn1` [CLJ-55], the IC50 was greater than 10000 nM at PI3Kα; 10 to 100 nM in experiment [1] (setting [4]); less than 100 nM at HDAC1 (setting [5]); 10 to 100 nM in experiment [2] (setting [6]); 0.1 to 10 nM in experiment [3] (setting [7]).
On to `CN(Cc1nc2c(N3CCOCC3)nc(-c3ccsc3)nc2n1C)c1ncc(C(=O)NO)cn1` [CLJ-22, 2-(((2-(3-thienyl)-9-methyl-6-morpholine-9H-purine-8-yl))methyl(methyl)amino)-N-hydroxyl pyrimidine-5-formamide], for which the IC50 was greater than 10000 nM at PI3Kα; 0.1 to 10 nM in experiment [1] (setting [4]); 0.1 to 10 nM in experiment [1] (setting [8]); less than 1 nM on HDAC1 (setting [5]); less than 1 nM at HDAC1 (setting [9]); 0.1 to 10 nM in experiment [2] (setting [6]). For the same molecule, the IC50 in experiment [2] (setting [10]), in experiment [3] (setting [7]) and in experiment [3] (setting [11]) was 0.1 to 10 nM throughout.
As for `COc1ccc(C(F)(F)F)cc1-c1nc(N2CCOCC2)c2nc(CN(C)c3ncc(C(=O)NO)cn3)n(C)c2n1` [CLJ-38, 2-(((2-(2-methoxy-5-trifluoromethylphenyl)-9-methyl-6-morpholine-9H-purine-8-yl))methyl(methyl)amino)-N-hydroxyl pyrimidine-5-formamide], the IC50 on PI3Kα was greater than 10000 nM; in experiment [1] (setting [4]), 10 to 100 nM; on HDAC1 (setting [5]), less than 100 nM; in experiment [2] (setting [6]) it was 100 to 1000 nM; in experiment [2] (setting [10]), greater than 100 nM; in experiment [3] (setting [7]), 0.1 to 10 nM. Besides, in experiment [3] (setting [11]), the IC50 was less than 10 nM.
Regarding `Cc1ccsc1-c1nc(N2CCOCC2)c2nc(CN(C)c3ncc(C(=O)NO)cn3)n(C)c2n1` [CLJ-19, 2-(((2-(3-methyl-2-thienyl)-9-methyl-6-morpholine-9H-purine-8-yl))methyl(methyl)amino)-N-hydroxyl pyrimidine-5-formamide], the IC50 at PI3Kα is greater than 10000 nM; in experiment [1] (setting [4]), 10 to 100 nM; at HDAC1 (setting [5]), less than 100 nM; in experiment [2] (setting [6]), 0.1 to 10 nM; in experiment [3] (setting [7]) it was 0.1 to 10 nM.
With `CC(C)=CCN(CC=C(C)C)c1ccc(-c2nc(N3CCOCC3)c3nc(CN(C)c4ncc(C(=O)NO)cn4)n(C)c3n2)cc1` [CLJ-49], the IC50 was greater than 10000 nM at PI3Kα; 10 to 100 nM in experiment [1] (setting [4]); less than 100 nM at HDAC1 (setting [5]); 100 to 1000 nM in experiment [2] (setting [6]); 10 to 100 nM in experiment [3] (setting [7]).
For the molecule `CN(Cc1nc2c(N3CCOCC3)nc(Cl)nc2n1C)c1ncc(C(=O)NO)cn1` [CLJ-68], the IC50 is greater than 10000 nM at PI3Kα; 10 to 100 nM in experiment [1] (setting [4]); less than 100 nM on HDAC1 (setting [5]); 10 to 100 nM in experiment [2] (setting [6]); 10 to 100 nM in experiment [3] (setting [7]).
In the case of `CN(Cc1nc2c(N3CCOCC3)nc(-c3ccc[nH]3)nc2n1C)c1ncc(C(=O)NO)cn1` [CLJ-24, 2-(((2-(1H-2-pyrrolyl)-9-methyl-6-morpholine-9H-purine-8-yl))methyl(methyl)amino)-N-hydroxyl pyrimidine-5-formamide], the IC50 at PI3Kα is 1000 to 10000 nM; in experiment [1] (setting [4]), 0.1 to 10 nM; in experiment [1] (setting [8]), 0.1 to 10 nM; at HDAC1 (setting [5]), less than 1 nM; on HDAC1 (setting [9]) it was less than 1 nM; in experiment [2] (setting [6]), 0.1 to 10 nM. Moreover, the IC50 in experiment [2] (setting [10]), in experiment [3] (setting [7]) and in experiment [3] (setting [11]) was 0.1 to 10 nM in each case.
On to `COc1ccc(-c2nc(N3CCOCC3)c3nc(CN(C)c4ncc(C(=O)NO)cn4)n(C4CCCC4)c3n2)cn1` [CLJ-4, 2-(((9-cyclopentyl-2-(6-methoxyl-3-pyridyl)-6-morpholino-9H-purine-8-yl))methyl(methyl)amino)-N-hydroxyl pyrimidine-5-formamide], for which the IC50 on PI3Kα was 1000 to 10000 nM; in experiment [1] (setting [4]), greater than 1000 nM; at HDAC1 (setting [5]) it was less than 100 nM; in experiment [2] (setting [6]), greater than 1000 nM; in experiment [3] (setting [7]), greater than 1000 nM.
As to `CN(Cc1nc2c(N3CCOCC3)nc(-c3cccnc3)nc2n1C)c1ncc(C(=O)NO)cn1` [CLJ-9, 2-(((2-(3-pyridyl)-9-methyl-6-morpholine-9H-purine-8-yl))methyl(methyl)amino)-N-hydroxyl pyrimidine-5-formamide], the IC50 is greater than 10000 nM on PI3Kα; 10 to 100 nM in experiment [1] (setting [4]); less than 1 nM on HDAC1 (setting [5]); less than 1 nM on HDAC1 (setting [9]); 10 to 100 nM in experiment [2] (setting [6]); 0.1 to 10 nM in experiment [3] (setting [7]).
For the molecule `COc1ccc(-c2nc(N3CCOCC3)c3nc(CN(C)c4ncc(C(=O)NO)cn4)n(C4CCCC4)c3n2)cc1` [CLJ-32, 2-(((9-cyclopentyl-2(4-methoxyphenyl)-6-morpholine-9H-purine-8-yl)methyl)(methyl)amino)-N-hydroxyl pyrimidine-5-formamide], the IC50 is greater than 10000 nM at PI3Kα; greater than 1000 nM in experiment [1] (setting [4]); 100 to 1000 nM on HDAC1 (setting [5]); greater than 1000 nM in experiment [2] (setting [6]); greater than 1000 nM in experiment [3] (setting [7]).
Consider `COc1ccc(-c2nc(N3CCOCC3)c3nc(CN(C)c4ncc(C(=O)NO)cn4)n(C(C)C)c3n2)cn1` [CLJ-3, 2-(((9-isopropyl-2-(6-methoxyl-3-pyridyl)-6-morpholino-9H-purine-8-yl))methyl(methyl)amino)-N-hydroxyl pyrimidine-5-formamide], for which the IC50 on PI3Kα is 1000 to 10000 nM; in experiment [1] (setting [4]) it was greater than 1000 nM; at HDAC1 (setting [5]), less than 100 nM; in experiment [2] (setting [6]) it was greater than 1000 nM; in experiment [3] (setting [7]) it was greater than 1000 nM.
With `CN(Cc1nc2c(N3CCOCC3)nc(-c3cc(C(F)(F)F)cc(C(F)(F)F)c3)nc2n1C)c1ncc(C(=O)NO)cn1` [CLJ-56], the IC50 was greater than 10000 nM at PI3Kα; 100 to 1000 nM in experiment [1] (setting [4]); less than 100 nM on HDAC1 (setting [5]); 100 to 1000 nM in experiment [2] (setting [6]); 10 to 100 nM in experiment [3] (setting [7]).
For `CN(Cc1nc2c(N3CCOCC3)nc(-c3ccc(N)nc3)nc2n1C)c1ncc(C(=O)NO)cn1` [CLJ-7, 2-(((2-(p-amino-3-pyridyl)-9-methyl-6-morpholine-9H-purine-8-yl))methyl(methyl)amino)-N-hydroxyl pyrimidine-5-formamide], the IC50 was greater than 10000 nM on PI3Kα; 10 to 100 nM in experiment [1] (setting [4]); less than 100 nM on HDAC1 (setting [5]); 100 to 1000 nM in experiment [2] (setting [6]); greater than 100 nM in experiment [2] (setting [10]); 0.1 to 10 nM in experiment [3] (setting [7]). Besides, the IC50 in experiment [3] (setting [11]) was less than 10 nM.
Consider `CCn1c(CN(C)c2ncc(C(=O)NO)cn2)nc2c(N3CCOCC3)nc(-c3ccc(OC)cc3)nc21` [CLJ-30, 2-((9-ethyl-2(4-methoxyphenyl)-6-morpholino-9H-purine-8-yl)methyl)(methyl)amino-N-hydroxyl pyrimidine-5-formamide], for which the IC50 was greater than 10000 nM at PI3Kα; 10 to 100 nM in experiment [1] (setting [4]); less than 100 nM at HDAC1 (setting [5]); 10 to 100 nM in experiment [2] (setting [6]); 0.1 to 10 nM in experiment [3] (setting [7]).
With `CN(Cc1nc2c(N3CCOCC3)nc(-c3ccc(Cl)c(C(F)(F)F)c3)nc2n1C)c1ncc(C(=O)NO)cn1` [CLJ-54, 2-(((2-(-4-chlorine-3-trifluoromethylphenyl)-9-methyl-6-morpholine-9H-purine-8-yl))methyl(methyl)amino)-N-hydroxyl pyrimidine-5-formamide], the IC50 at PI3Kα is greater than 10000 nM; in experiment [1] (setting [4]) it was 100 to 1000 nM; at HDAC1 (setting [5]), less than 100 nM; in experiment [2] (setting [6]) it was 100 to 1000 nM; in experiment [3] (setting [7]), 100 to 1000 nM.
